The source of these data is US8642621B2, “(4-phenyl-piperidin-1-yl)-[5-(1H-pyrazol-4-yl)-thiophen-3-yl]-methanone compounds and their use” (The University Of Edinburgh, priority 2009, dated 2014).

Series [1] addresses T1, human 11β-HSD1 enzyme (Homo sapiens, UniProt P28845).
T1 construct: stably transfected with a construct containing the full-length gene coding for the human 11β-HSD1 enzyme; expressed in transfected cells; HEK293/11β-HSD1 cells)
As to the kind of experiment: Cellular in vitro 11β-HSD1 enzyme inhibition assay (SPA, HEK293/11β-HSD1 cells). The class given is cell-based. As to the method:
Cellular In Vitro 11β-HSD1 Enzyme Inhibition Assay
Compounds were assessed by a Scintillation Proximity Assay (SPA) performed according to the following protocol:
HEK293 cells were stably transfected with a construct containing the full-length gene coding for the human 11β-HSD1 enzyme to create HEK293/11β-HSD1 cells. Cells were routinely cultured in DMEM containing 10% calf foetal serum, 1% glutamine, and 1% penicillin and streptomycin. Prior to assay, cells were plated at 2×10^4 cells/well in 96-well poly-D-Lys coated flat-bottomed microplates and incubated in 5% CO2, 95% O2 at 37° C. for 24 hours. The media in each well was removed immediately before assay.
Compounds to be tested were dissolved in DMSO at 10 mM and serially diluted into water containing 10% DMSO. Diluted compounds at a volume of 10 μL were added to wells of a 96-well V-bottomed microplate. A solution of DMEM, 1% glutamine, 1% penicillin and streptomycin, and 22 nM tritiated cortisone was prepared and 90 μL added to each well of the assay plate. This solution (100 μL/well) was transferred to the plate containing the cells. The plate was then incubated in 5% CO2, 95% O2 at 37° C. for 2 hours.
Following this incubation, 50 μL of the assay solution was transferred to each well of a 96-well scintillation microplate. A mixture consisting of anti-mouse YSi SPA beads, pre-mixed with anti-cortisol antibody in assay buffer (50 mM Tris.HCl, pH 7.0; 300 mM NaCl; 1 mM EDTA, 5% glycerol) was prepared and 50 μL added to each well of the scintillation microplate. An adhesive strip was applied to the microplate and the plate gently shaken for at least 2 hours at room temperature, and then spun briefly on a low speed centrifuge. The plate was read on a scintillation counter suitable for 96-well microplates. For the calculation of percentage inhibition, a series of wells were added to the plate that represented the assay maximum and the assay minimum: one set that contained substrate without cells (minimum) and another set that contained substrate and cells without any compound (maximum).
The calculation of median inhibitory concentration (IC50) values for the compounds was performed using GraphPad Prism® software. Dose-response curves for each compound were plotted as fractional inhibition and data fitted to the four parameter logistic equation.

A short description of series [2]: In vitro human liver microsomal stability assay. Type of series: in vitro ADME. Particulars: human liver microsomes. As to the method: In Vitro Human Liver Microsomal Stability Assay
To predict in vivo metabolism of compounds, the stability of compounds incubated with human liver microsomes in vitro was determined. Human liver microsome preparations were stored at −80° C. and thawed on ice prior to use. The thawed microsomes were diluted to a concentration of 2 mg/mL in 50 mM sodium phosphate, pH 7.4. Reference and test compounds were prepared as 10 mM stocks in 100% DMSO and diluted to 1 mM in acetonitrile before use. Each compound was tested in triplicate as follows:
4 μL of test or reference compound was added to a well of a 24-well microplate and 0.5 mL of 4 mM NADPH added. The plate was then transferred to a shaker for 10 minutes at room temperature. 30 μL of the compound/NADPH solution was transferred to the well of a 96-well microplate and incubated at 37° C. for 5 minutes. 30 μL of human liver microsomes (pre-incubated at 37° C. for 5 minutes) was added to the well containing the compound/NADPH solution and the plate incubated for the selected period of time (typically 0 or 30 minutes). The reaction was stopped by adding 60 μL of ice cold […] trichloroacetic acid. The plate was centrifuged at 1000 rpm for 5 minutes at room temperature and the supernatant transferred to the well of a new 96-well v-bottomed microplate for mass spectrometric analysis.
Samples were analyzed by TSQ Quantum Discovery Tandem Mass Spectrometer and Surveyor Liquid Chromatogram (Thermo, Hemel-Hempstead, UK). 10 μL of each sample was injected in a mobile phase consisting of 60%:40% methanol:5 mM ammonium acetate at a flow rate of 0.5 mL/minute. The column used was a BDS hypersil, C18, 50×2.1 mm with a 5 μm particle size.
Each compound was tuned with a spray voltage of 3000 V and a capillary temperature of 300° C. and values for tube lens, CID and product ions were determined.
The peak area for each compound was measured in triplicate for the 0 and 30 minute samples and the average of each was reported. The percentage remaining after 30 minutes was calculated as the average peak area of the sample after 30 minutes divided by the average peak area at 0 minutes. The RSD was 10% or lower for each compound.
For orientation: Microsomes from liver hold many membrane-bound enzymes, among them those of drug oxidation.

Setting [3] is: read-out: IC50 for 11β-HSD1 (HEK293).

pIC50: −log10 of the molar value. Where two headings read alike, the source gives them in different places. Where only a bound is given, the exact number is not on record here.

T1 sequence (P28845 whole entry): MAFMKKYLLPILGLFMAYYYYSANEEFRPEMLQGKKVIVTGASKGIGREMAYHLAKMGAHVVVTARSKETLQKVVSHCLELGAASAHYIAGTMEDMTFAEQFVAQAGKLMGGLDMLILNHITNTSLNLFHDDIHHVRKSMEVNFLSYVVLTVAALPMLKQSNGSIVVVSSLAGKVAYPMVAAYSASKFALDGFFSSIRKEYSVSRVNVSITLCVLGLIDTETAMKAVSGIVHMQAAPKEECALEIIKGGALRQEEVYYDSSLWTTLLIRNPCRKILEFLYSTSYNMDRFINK

The term pIC50 denotes the IC50 on a negative log10 scale, so that one unit is a factor of ten. As for `O=C(c1csc(-c2cn[nH]c2)c1)N1CCC(O)(c2cccc(C(F)(F)F)c2)CC1` [AA-03], the pIC50 in series [1] (setting [3]) was 6.00 to 6.30. As for `O=C(c1csc(-c2cn[nH]c2)c1)N1CCC(O)(c2ccc(F)cc2)CC1` [AA-05], in series [1] (setting [3]), the pIC50 was not below 6.30. The “% Parent Remaining at 30 min” value in series [2] is reported as “+++ (61-100% +++)”. The like results for `O=C(c1csc(-c2cn[nH]c2)c1)N1CCC(O)(c2ccc(Cl)cc2F)CC1` [AA-07] were, in that order, not below 6.30 and “+++ (61-100% +++)”. The like results for `O=C(c1csc(-c2cn[nH]c2)c1)N1CCC(O)(c2ccc(F)cc2F)CC1` [AA-09] were, in that order, not below 6.30 and “+++ (61-100% +++)”.

With `O=C(c1csc(-c2cn[nH]c2)c1)N1CCC(O)(c2ccccc2O)CC1` [AA-10], the pIC50 in series [1] (setting [3]) is 5.00 to 6.00. Same read-out and setting: in the case of `O=C(c1csc(-c2cn[nH]c2)c1)N1CCC(O)(c2ccc(Cl)c(Cl)c2)CC1` [AA-11] it was not below 6.30; in that of `Cc1ccccc1C1(O)CCN(C(=O)c2csc(-c3cn[nH]c3)c2)CC1` [AA-13], not below 6.30. Still for that read-out and setting: in the case of `O=C(c1csc(-c2cn[nH]c2)c1)N1CCC(O)(c2ccccc2C(F)(F)F)CC1` [AA-14] it was not below 6.30. With `CC1(c2ccccc2)CCN(C(=O)c2csc(-c3cn[nH]c3)c2)CC1` [AA-16], the pIC50 in series [1] (setting [3]) was not below 6.30. The “% Parent Remaining at 30 min” value in series [2] is on record as “+ (0-30% +)”.

For the molecule `O=C(c1csc(-c2cn[nH]c2)c1)N1CCC(CO)(c2ccccc2)CC1` [AA-19], the pIC50 in series [1] (setting [3]) was 5.00 to 6.00. As to `N#CC1(c2ccccc2)CCN(C(=O)c2csc(-c3cn[nH]c3)c2)CC1` [AA-20], the pIC50 in series [1] is 5.00 to 6.00.

Regarding `O=C(c1csc(-c2cn[nH]c2)c1)N1CCC(O)(c2cccc(Cl)c2Cl)CC1` [AA-21], the pIC50 in series [1] (setting [3]) is not below 6.30. In the case of `O=C(c1csc(-c2cn[nH]c2)c1)N1CCC(O)(c2c(F)cccc2Cl)CC1` [AA-23], in series [1] (setting [3]), the pIC50 was not below 6.30. Still for that read-out and setting: in the case of `O=C(c1csc(-c2cn[nH]c2)c1)N1CCC(O)(c2ccc(Cl)cc2Cl)CC1` [AA-24] it was not below 6.30; in that of `COc1ccccc1C1(O)CC2CCC(C1)N2C(=O)c1csc(-c2cn[nH]c2)c1` (stereo not shown) [AA-25], not below 6.30. On the same count and under the same terms, in the case of `O=C(c1csc(-c2cn[nH]c2)c1)N1CCC(O)(c2cc(F)ccc2Cl)CC1` [AA-26] it was not below 6.30; in that of `O=C(c1csc(-c2cn[nH]c2)c1)N1CCC(O)(c2c(Cl)cccc2Cl)CC1` [AA-27], not below 6.30; in that of `O=C(c1csc(-c2cn[nH]c2)c1)N1CCC(O)(c2c(F)cccc2F)CC1` [AA-28], not below 6.30. As for `Cc1n[nH]cc1-c1cc(C(=O)N2CCC(O)(c3ccccc3Cl)CC2)cs1` [AA-29], in series [1] (setting [3]), the pIC50 was not below 6.30.

As for `O=C(c1csc(-c2cn[nH]c2)c1)N1CCC(O)(c2cc(Cl)ccc2Cl)CC1` [AA-31], in series [1] (setting [3]), the pIC50 is not below 6.30.

Consider `O=C(c1csc(-c2cn[nH]c2)c1)N1CC2CCC(C1)C2(O)c1ccccc1` (stereo not shown) [AA-32], for which the pIC50 in series [1] (setting [3]) is 6.00 to 6.30. Still for that read-out and setting: in the case of `CC1(c2ccccc2Cl)CCN(C(=O)c2csc(-c3cn[nH]c3)c2)CC1` [AA-34] it was not below 6.30; in that of `O=C(c1csc(-c2cn[nH]c2)c1)N1CCC(F)(c2ccc(Cl)cc2)CC1` [AA-35], 6.00 to 6.30; in that of `O=C(c1csc(-c2cn[nH]c2)c1)N1CCC(F)(c2ccc(Cl)cc2Cl)CC1` [AA-38], not below 6.30. For `O=C(c1csc(-c2cn[nH]c2)c1)N1CC2CCC(C1)C2(F)c1ccccc1` (stereo not shown) [AA-39, (8-Fluoro-8-phenyl-3-aza-bicyclo[3.2.1]oct-3-yl)-[5-(1H-pyrazol-4-yl)-thiophen-3-yl]methanone], the pIC50 in series [1] (setting [3]) is 5.00 to 6.00. For `Cc1cccc(F)c1C1(F)CCN(C(=O)c2csc(-c3cn[nH]c3)c2)CC1` [AA-40], in series [1] (setting [3]), the pIC50 is not below 6.30. `N#CC1(c2ccccc2Cl)CCN(C(=O)c2csc(-c3cn[nH]c3)c2)CC1` [AA-41] gave a pIC50 in series [1] of 5.00 to 6.00. In the case of `O=C(c1csc(-c2cn[nH]c2)c1)N1CCC(c2ccc(F)cc2)CC1` [BB-01], the pIC50 in series [1] (setting [3]) was 6.00 to 6.30. Also, the “% Parent Remaining at 30 min” value in series [2] was “+++ (61-100% +++)”. On to `N#Cc1ccc(C2CCN(C(=O)c3csc(-c4cn[nH]c4)c3)CC2)cc1` [BB-02], for which, in series [1] (setting [3]), the pIC50 was 5.00 to 6.00. As to `N#Cc1ccccc1C1CCN(C(=O)c2csc(-c3cn[nH]c3)c2)CC1` [BB-04], the pIC50 in series [1] (setting [3]) was not below 6.30. For the same molecule, in series [2], the “% Parent Remaining at 30 min” value was “++ (31-60% ++)”. `O=C(c1csc(-c2cn[nH]c2)c1)N1CCC(c2cccc(F)c2)CC1` [BB-05]: the pIC50 in series [1] (setting [3]) is not below 6.30. Further, in series [2], the “% Parent Remaining at 30 min” value is reported as “++ (31-60% ++)”. In the same order, the values of `O=C(c1csc(-c2cn[nH]c2)c1)N1CCC(c2ccc(Cl)cc2)CC1` [BB-06] are 6.00 to 6.30 and “+++ (61-100% +++)”. Consider `O=C(c1csc(-c2cn[nH]c2)c1)N1CCC(c2ccccc2F)CC1` [BB-07], for which, in series [1] (setting [3]), the pIC50 is not below 6.30. The “% Parent Remaining at 30 min” value in series [2] is “+ (0-30% +)”. In the case of `O=C(c1csc(-c2cn[nH]c2)c1)N1CCC(c2ccccc2OC(F)F)CC1` [BB-09], the pIC50 in series [1] (setting [3]) is not below 6.30.

`O=C(c1csc(-c2cn[nH]c2)c1)N1CCC(c2ccc(F)cc2F)CC1` [BB-10]: the pIC50 in series [1] (setting [3]) is 6.00 to 6.30. Still for that read-out and setting: with `Cc1ccccc1C1CCN(C(=O)c2csc(-c3cn[nH]c3)c2)CC1` [BB-12] the figure was not below 6.30. As for `O=C(c1csc(-c2cn[nH]c2)c1)N1CCC(c2ccccc2C(F)(F)F)CC1` [BB-13], the pIC50 in series [1] (setting [3]) is 6.00 to 6.30. The “% Parent Remaining at 30 min” value in series [2] was “+++ (61-100% +++)”. In the case of `O=C(c1csc(-c2cn[nH]c2)c1)N1CCC(c2ccccc2CO)CC1` [BB-14], in series [1] (setting [3]), the pIC50 was not below 6.30. On the same count and under the same terms, in the case of `O=C(c1csc(-c2cn[nH]c2)c1)N1CCC(c2ccccc2Cl)CC1` [BB-15] it was not below 6.30.
